Source: ChEMBL document CHEMBL5357068, “Discovery of Novel TLR7 Agonists as Systemic Agent for Combination With aPD1 for Use in Immuno-oncology” (ACS Med Chem Lett, 2024)
The source made the active and inactive calls. No cut-off for these calls is given here.

Tests used:
[1] = Inhibition of GPCR (unknown origin); set-up: species or system Homo sapiens
Mus musculus [2] = assay: Induction of IFN-alpha production in Balb/c mouse serum at […], iv measured after 6 hrs by ELISA analysis; format: functional, organism-based
[3] = Permeability of compound at pH 5.5 by PAMPA; format: ADME; conditions: read-out: permeability
THP-1 = assay: Cytotoxicity against human THP-1 cells; format: toxicity, cell-based
[4] = molecular target: T1, Toll-like receptor 8 (Homo sapiens) (UniProt Q9NR97); assay: Agonist activity at human TLR8
T1 sequence (whole entry): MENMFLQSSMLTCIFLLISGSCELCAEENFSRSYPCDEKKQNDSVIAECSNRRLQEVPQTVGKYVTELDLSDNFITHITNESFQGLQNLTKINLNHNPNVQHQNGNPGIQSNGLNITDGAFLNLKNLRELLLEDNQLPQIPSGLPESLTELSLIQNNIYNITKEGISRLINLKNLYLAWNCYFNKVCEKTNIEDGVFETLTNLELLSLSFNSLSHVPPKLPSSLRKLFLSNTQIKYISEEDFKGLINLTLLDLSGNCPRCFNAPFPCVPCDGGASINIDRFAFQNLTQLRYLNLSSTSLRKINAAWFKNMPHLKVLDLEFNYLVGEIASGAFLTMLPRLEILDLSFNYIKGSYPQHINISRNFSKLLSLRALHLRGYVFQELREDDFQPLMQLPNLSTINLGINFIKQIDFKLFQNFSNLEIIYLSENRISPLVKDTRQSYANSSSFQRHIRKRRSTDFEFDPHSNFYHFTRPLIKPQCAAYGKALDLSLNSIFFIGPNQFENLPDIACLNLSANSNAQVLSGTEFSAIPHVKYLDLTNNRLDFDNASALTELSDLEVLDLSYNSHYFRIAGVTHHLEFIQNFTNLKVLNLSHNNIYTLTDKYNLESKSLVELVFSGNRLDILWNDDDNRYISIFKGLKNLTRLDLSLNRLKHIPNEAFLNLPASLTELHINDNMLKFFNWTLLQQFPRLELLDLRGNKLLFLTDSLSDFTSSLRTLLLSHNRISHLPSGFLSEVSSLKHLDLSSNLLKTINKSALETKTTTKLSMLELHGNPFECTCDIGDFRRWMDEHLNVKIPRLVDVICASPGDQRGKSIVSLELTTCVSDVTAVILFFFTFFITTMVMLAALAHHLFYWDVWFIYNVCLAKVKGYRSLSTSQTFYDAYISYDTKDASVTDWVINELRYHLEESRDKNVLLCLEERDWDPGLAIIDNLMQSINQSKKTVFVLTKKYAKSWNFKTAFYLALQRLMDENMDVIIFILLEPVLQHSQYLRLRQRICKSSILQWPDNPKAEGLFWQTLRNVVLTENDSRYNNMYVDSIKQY

[5] = molecular target: T2, Nuclear receptor subfamily 1 group I member 2 (Homo sapiens, UniProt O75469); assay: Transactivation of PXR (unknown origin)
T2 sequence (O75469 whole entry): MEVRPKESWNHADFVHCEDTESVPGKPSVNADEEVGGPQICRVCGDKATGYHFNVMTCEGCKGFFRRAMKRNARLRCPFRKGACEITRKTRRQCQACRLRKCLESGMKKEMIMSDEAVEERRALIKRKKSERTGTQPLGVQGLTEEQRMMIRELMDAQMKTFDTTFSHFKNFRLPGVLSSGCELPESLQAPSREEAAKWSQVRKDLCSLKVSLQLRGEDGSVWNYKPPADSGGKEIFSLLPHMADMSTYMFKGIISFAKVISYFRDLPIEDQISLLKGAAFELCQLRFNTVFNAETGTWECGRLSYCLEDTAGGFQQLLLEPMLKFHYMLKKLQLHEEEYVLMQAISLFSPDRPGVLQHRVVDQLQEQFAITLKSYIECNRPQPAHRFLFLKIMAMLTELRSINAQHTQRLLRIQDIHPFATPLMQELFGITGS

Jurkat = assay: Cytotoxicity against human Jurkat cells; format: toxicity, cell-based
Blood [6] = assay: Induction of IP-10 secretion in mouse whole blood; format: functional, tissue-based
Blood [7] = assay: Induction of TNF-alpha secretion in mouse whole blood; format: functional, tissue-based
[8] = Metabolic stability in human liver microsomes assessed as compound remaining; format: ADME, Microsome
[9] = Metabolic stability in human liver microsomes assessed as half-life; format: ADME, Microsome
[10] = molecular target: Toll-like receptor 3 (Homo sapiens) (UniProt O15455); assay: Agonist activity at human TLR3
Blood [11] = assay: Induction of MX1 secretion in mouse whole blood; format: functional, tissue-based
Mus musculus [12] = assay: Induction of IFN-alpha production in iv dosed Balb/c mouse serum measured after 6 hrs by ELISA analysis; format: functional, organism-based; conditions: dose lower […], dose upper 0.5 mg/kg
Blood [13] = assay: Induction of IFIT3 secretion in human whole blood; format: functional, tissue-based
in vitro = conditions: PHA-activated T cells
[14] = Clearance in Balb/c mouse at 0.5 mg/kg, iv measured after 2 hrs by LC-MS analysis; format: ADME, organism-based; conditions: in vivo
CT26 [15] = assay: Cytotoxicity against mouse CT26 cells; format: toxicity, cell-based
[16] = Protein binding in mouse plasma assessed as free fraction; format: ADME, cell-free
Blood [17] = assay: Induction of TNF-alpha secretion in human whole blood; format: functional, tissue-based
[18] = Permeability of compound at pH 7.4 by PAMPA; format: ADME; conditions: read-out: permeability
[19] = Drug concentration in Balb/c mouse at […], iv measured after 5 min by LC-MS analysis; format: ADME, organism-based; conditions: in vivo, dose 0.15 mg/kg, read-out: Drug uptake
CT26 [20] = assay: Antitumor activity against mouse CT26 cells implanted in Balb/cAnNHsd mouse administered intraperitoneally once a week for 4 weeks in the presence of aPD1 antibody; format: functional; conditions: dose lower […], dose upper […], route ip
[21] = Protein binding in human plasma assessed as free fraction; format: ADME, cell-free
[22] = Drug concentration in Balb/c mouse at 0.5 mg/kg, iv measured after 5 min by LC-MS analysis; format: ADME, organism-based; conditions: in vivo, read-out: Drug uptake
Blood [23] = assay: Induction of IFIT3 secretion in mouse whole blood; format: functional, tissue-based
[24] = molecular target: Toll-like receptor 2 (Homo sapiens) (UniProt O60603); assay: Agonist activity at human TLR2
[25] = Protein binding in cynomolgus monkey plasma assessed as free fraction; format: ADME, cell-free, Macaca fascicularis
Blood [26] = assay: Induction of IFIT1 secretion in human whole blood; format: functional, tissue-based
[27] = Metabolic stability in mouse liver microsomes assessed as compound remaining; format: ADME, Microsome
[28] = Permeability of compound across basolateral to apical side in human Caco-2 cells; format: ADME, cell-based; conditions: read-out: permeability

Chain of Toll-like receptor 2 (Homo sapiens) (O60603 whole entry): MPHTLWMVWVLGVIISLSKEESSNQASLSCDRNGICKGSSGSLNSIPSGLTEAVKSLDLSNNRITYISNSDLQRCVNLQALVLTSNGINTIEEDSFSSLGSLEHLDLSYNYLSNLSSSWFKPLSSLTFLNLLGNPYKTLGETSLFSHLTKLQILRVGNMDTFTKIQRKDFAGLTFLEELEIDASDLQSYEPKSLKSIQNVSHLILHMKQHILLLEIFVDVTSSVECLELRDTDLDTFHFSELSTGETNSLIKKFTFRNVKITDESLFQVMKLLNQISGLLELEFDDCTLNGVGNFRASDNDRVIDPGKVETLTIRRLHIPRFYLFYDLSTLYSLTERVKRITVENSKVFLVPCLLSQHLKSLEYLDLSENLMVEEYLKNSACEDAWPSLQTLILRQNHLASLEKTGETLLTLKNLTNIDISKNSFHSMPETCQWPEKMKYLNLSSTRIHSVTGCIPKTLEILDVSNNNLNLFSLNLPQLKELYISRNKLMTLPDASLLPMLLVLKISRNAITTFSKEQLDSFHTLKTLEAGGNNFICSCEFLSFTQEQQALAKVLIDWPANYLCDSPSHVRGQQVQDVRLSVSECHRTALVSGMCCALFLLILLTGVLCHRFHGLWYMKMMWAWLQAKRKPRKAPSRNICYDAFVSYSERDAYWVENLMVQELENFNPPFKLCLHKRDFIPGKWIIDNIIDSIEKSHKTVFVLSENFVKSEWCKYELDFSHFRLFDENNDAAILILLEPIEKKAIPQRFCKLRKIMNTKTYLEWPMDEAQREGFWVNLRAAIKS
Chain of Toll-like receptor 3 (Homo sapiens) (O15455 whole entry): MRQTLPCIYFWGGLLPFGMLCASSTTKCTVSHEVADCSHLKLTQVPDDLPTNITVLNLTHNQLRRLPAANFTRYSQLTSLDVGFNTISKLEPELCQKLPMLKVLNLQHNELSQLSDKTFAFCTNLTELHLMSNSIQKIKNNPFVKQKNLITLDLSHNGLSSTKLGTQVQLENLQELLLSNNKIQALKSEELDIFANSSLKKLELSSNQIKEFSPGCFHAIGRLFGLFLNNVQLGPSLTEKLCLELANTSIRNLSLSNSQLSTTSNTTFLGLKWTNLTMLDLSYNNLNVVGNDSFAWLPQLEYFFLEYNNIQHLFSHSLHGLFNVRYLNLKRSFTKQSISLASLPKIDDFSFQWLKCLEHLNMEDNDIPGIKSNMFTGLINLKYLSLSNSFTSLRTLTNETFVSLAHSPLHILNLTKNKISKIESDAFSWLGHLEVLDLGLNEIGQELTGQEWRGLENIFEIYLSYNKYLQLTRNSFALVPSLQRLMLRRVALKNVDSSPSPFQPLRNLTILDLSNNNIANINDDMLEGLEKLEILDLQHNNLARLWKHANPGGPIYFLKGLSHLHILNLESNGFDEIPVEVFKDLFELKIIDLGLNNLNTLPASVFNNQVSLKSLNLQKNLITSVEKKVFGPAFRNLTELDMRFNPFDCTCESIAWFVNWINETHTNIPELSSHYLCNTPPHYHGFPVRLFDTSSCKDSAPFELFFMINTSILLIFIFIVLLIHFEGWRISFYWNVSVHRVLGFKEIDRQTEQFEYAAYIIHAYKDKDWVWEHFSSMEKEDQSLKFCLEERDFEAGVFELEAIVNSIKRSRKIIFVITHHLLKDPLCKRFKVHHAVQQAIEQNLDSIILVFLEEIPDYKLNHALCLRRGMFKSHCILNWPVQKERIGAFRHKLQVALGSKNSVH

## CCC[C@@H](CCO)Nc1nc(N)nc2cnn(Cc3ccc(CNC4CCOCC4)cc3OC)c12
[1]
  IC50: > 30000 nM
Mus musculus [2]
  Activity: inactive
[3]
  Papp: 0.95 ×10⁻⁶ cm/s
THP-1
  EC: > 25 µM
[4]
  EC: > 5 µM
[5]
  EC: > 50 nM
Jurkat
  EC: > 25 µM
Blood [6]
  EC50: 0.32 nM
Blood [7]
  EC50: 3.4 nM
[8]
  Stability: 75%
[9]
  half-life: 43 min
[10]
  EC: > 5 µM
Blood [11]
  EC50: 0.18 nM
Mus musculus [12]
  Activity: Dose-Dependent Effect
Blood [13]
  EC50: 0.11 nM
In vitro
  IC50: > 25000 nM
[14]
  clearance: 160 mL/min/kg
CT26 [15]
  EC: > 25 µM
[16]
  fraction unbound: 0.41
Blood [17]
  EC50: 631 nM
[18]
  Papp: 1.58 ×10⁻⁶ cm/s
[19]
  concentration at 5 min: 85 nM
CT26 [20]
  Activity: Dose-Dependent Effect
[21]
  fraction unbound: 0.5
[22]
  concentration at 5 min: 139 nM
Blood [23]
  EC50: 0.13 nM
[24]
  EC: > 5 µM
[25]
  fraction unbound: 0.31
Blood [26]
  EC50: 0.1 nM
[27]
  Stability: 81%
[28]
  Papp B→A: 10.9 ×10⁻⁶ cm/s
